Values joined by “and” are separate entries in the source; they are usually repeats but may differ in a detail not shown here. Equal entries are not always repeated. Where two headings read alike, the source gives them in different places.
Assays:
[1] = system: ERICA; assay: greenhouse post-emergence herbicidal test; assay type: in vivo, Conyza canadensis; parameters: key to herbicidal activity against ERICA found: rating on a scale from 0 to 100; settings: post emergence
Summary of the method: (§1)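 Combination activity judged against additive expectation by Colby, E=X+Y−(X·Y/100), from 0–100 damage ratings taken 20 days post-spray. Plants at 1–15 cm in loamy sand (69.9% sand) were sprayed with components formulated as 10% w/w emulsion concentrate in water.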

[2] = system: GERDI; assay: greenhouse post-emergence herbicidal test; assay type: in vivo, Geranium dissectum; parameters: key to herbicidal activity against GERDI found: rating on a scale from 0 to 100; settings: post emergence
Summary of the method: as §1

[3] = I.1 31.25 g/ha, B.103 15 g/ha a.i.
[4] = I.1 62.5 g/ha, B.103 7.5 g/ha a.i.
[5] = I.1 62.5 g/ha, B.103 15 g/ha a.i.
[6] = I.1 62.5 g/ha, B.89 25 g/ha a.i.
[7] = I.1 62.5 g/ha, B.95 1 g/ha a.i.
[8] = I.1 62.5 g/ha, B.95 2 g/ha a.i.
[9] = application rate a.i.: I.1 31.25 g/ha, B.100 (isoxaflutole) 12.5 g/ha, alone or as mixture (composition 1.100)
[10] = application rate a.i.: I.1 62.5 g/ha, B.100 (isoxaflutole) 12.5 g/ha, alone or as mixture (composition 1.100)
[11] = g/ha a.i.: I.1 31.25, B.52 2.5, mixture 31.25+2.5
[12] = g/ha a.i.: I.1 62.5, B.52 2.5, mixture 62.5+2.5

Structure (SMILES): O=C(O)c1cc(C2CC2)nc2onc(C3CC3)c12 [I.1]
- herbicidal activity against ERICA found [1, 3]: 0
- herbicidal activity against ERICA found ([1]; I.1 31.25 g/ha, B.95 1 g/ha a.i.): 0
- herbicidal activity against ERICA found ([1]; I.1 31.25 g/ha, B.95 2 g/ha a.i.): 0
- herbicidal activity against ERICA found [1, 4]: 0
- herbicidal activity against ERICA found [1, 5]: 0
- herbicidal activity against ERICA found ([1]; I.1 62.5 g/ha, B.57 2 g/ha a.i.): 10
- herbicidal activity against ERICA found [1, 6]: 10
- herbicidal activity against ERICA found [1, 7]: 10
- herbicidal activity against ERICA found [1, 8]: 10
- herbicidal activity against ERICA found ([1]; a.i. g/ha: I.1 31.25, B.92 0.5, 20 days after treatment): 25%
- herbicidal activity against ERICA found ([1]; a.i. g/ha: I.1 62.5, B.191 225, 20 days after treatment): 90%
- herbicidal activity against ERICA found ([1]; a.i. g/ha: I.1 62.5, B.69 25, 20 days after treatment): 90%
- herbicidal activity against ERICA found ([1]; a.i. g/ha: I.1 62.5, B.80 250, 20 days after treatment): 65%
- herbicidal activity against ERICA found ([1]; application rate a.i.: I.1 20.8 g/ha, B.107 (topramezone) 6 g/ha, alone or as mixture (composition 1.107)): 65
- herbicidal activity against ERICA found [1, 9]: 25
- herbicidal activity against ERICA found ([1]; application rate a.i.: I.1 31.25 g/ha, B.84 (paraquat-dichloride) 17.5 g/ha, alone or as mixture (composition 1.84)): 55
- herbicidal activity against ERICA found [1, 10]: 75
- herbicidal activity against ERICA found ([1]; application rate a.i.: I.1 62.5 g/ha, B.107 (topramezone) 6 g/ha, alone or as mixture (composition 1.107)): 65
- herbicidal activity against ERICA found ([1]; applied alone at 62.5 g/ha a.i.): 75
- herbicidal activity against ERICA found ([1]; applied alone at 125 g/ha a.i.): 75 and 65
- herbicidal activity against ERICA found [1, 11]: 0
- herbicidal activity against ERICA found ([1]; g/ha a.i.: I.1 31.25, B.52 5, mixture 31.25+5): 0
- herbicidal activity against ERICA found [1, 12]: 35
- herbicidal activity against ERICA found ([1]; g/ha a.i.: I.1 62.5, B.52 5, mixture 62.5+5): 35
- pest or weed control at 62.5 g/ha ([2]; Geranium dissectum, post-emergence, 480 h, 62.5 g/ha a.i., read-out: herbicidal activity against GERDI found): 90%
- pest or weed control at 31.25 g/ha ([2]; Geranium dissectum, post-emergence, 480 h, I.1 31.25 g/ha a.i., read-out: herbicidal activity against GERDI found): 50%
- pest or weed control at 62.5 g/ha ([2]; Geranium dissectum, post-emergence, 480 h, I.1 62.5 g/ha a.i., read-out: herbicidal activity against GERDI found): 55%
- pest or weed control at 15.625 g/ha ([2]; Geranium dissectum, post-emergence, 480 h, single active, 15.625 g/ha a.i., read-out: herbicidal activity against GERDI found): 0%
- pest or weed control at 31.25 g/ha ([2]; Geranium dissectum, post-emergence, 480 h, single active, 31.25 g/ha a.i., read-out: herbicidal activity against GERDI found): 10%
- pest or weed control at 62.5 g/ha ([2]; Geranium dissectum, post-emergence, 480 h, single active, 62.5 g/ha a.i., read-out: herbicidal activity against GERDI found): 60%
- pest or weed control at 125 g/ha ([2]; Geranium dissectum, post-emergence, 480 h, single active, 125 g/ha a.i., read-out: herbicidal activity against GERDI found): 70%
- herbicidal activity against GERDI found ([2]; I.1 15.6 g/ha, B.103 7.5 g/ha a.i.): 0
- herbicidal activity against GERDI found ([2]; I.1 15.62 g/ha, B.89 25 g/ha a.i.): 0
- herbicidal activity against GERDI found ([2]; I.1 31.25 g/ha, B.103 7.5 g/ha a.i.): 30
- herbicidal activity against GERDI found [2, 3]: 30
- herbicidal activity against GERDI found [2, 4]: 60
- herbicidal activity against GERDI found [2, 5]: 60
- herbicidal activity against GERDI found ([2]; I.1 62.5 g/ha, B.167 125 g/ha a.i.): 60
- herbicidal activity against GERDI found ([2]; I.1 62.5 g/ha, B.88 1 g/ha a.i.): 0
- herbicidal activity against GERDI found ([2]; I.1 62.5 g/ha, B.88 2 g/ha a.i.): 0
- herbicidal activity against GERDI found ([2]; I.1 62.5 g/ha, B.89 12.5 g/ha a.i.): 0
- herbicidal activity against GERDI found [2, 6]: 0
- herbicidal activity against GERDI found [2, 7]: 0
- herbicidal activity against GERDI found [2, 8]: 0
- herbicidal activity against GERDI found ([2]; a.i. g/ha: I.1 7.8, B.67 125, 20 days after treatment): 0%
- herbicidal activity against GERDI found ([2]; a.i. g/ha: I.1 15.6, B.67 125, 20 days after treatment): 0%
- herbicidal activity against GERDI found ([2]; a.i. g/ha: I.1 31.25, B.190 62.5, 20 days after treatment): 30%
- herbicidal activity against GERDI found ([2]; a.i. g/ha: I.1 31.25, B.67 125, 20 days after treatment): 30%
- herbicidal activity against GERDI found ([2]; a.i. g/ha: I.1 31.25, B.67 125, 20 days after treatment, sub-table r36-r43): 30%
- herbicidal activity against GERDI found ([2]; a.i. g/ha: I.1 62.5, B.67 125, 20 days after treatment): 40%
- herbicidal activity against GERDI found [2, 9]: 60
- herbicidal activity against GERDI found ([2]; application rate a.i.: I.1 31.25 g/ha, B.40 (imazethapyr) 7.5 g/ha, alone or as mixture (composition 1.40)): 30
- herbicidal activity against GERDI found [2, 10]: 65
- herbicidal activity against GERDI found ([2]; application rate a.i.: I.1 62.5 g/ha, B.30 (imazamox) 3.75 g/ha, alone or as mixture (composition 1.030)): 85
- herbicidal activity against GERDI found ([2]; application rate a.i.: I.1 62.5 g/ha, B.40 (imazethapyr) 7.5 g/ha, alone or as mixture (composition 1.40)): 70
- herbicidal activity against GERDI found ([2]; application rate a.i.: I.1 62.5 g/ha, B.87 (carfentrazone-ethyl) 1.75 g/ha, alone or as mixture (composition 1.87)): 85
- herbicidal activity against GERDI found ([2]; application rate a.i.: I.1 125 g/ha, B.113 (glyphosate) 135 g/ha, alone or as mixture (composition 1.113)): 80
- herbicidal activity against GERDI found ([2]; application rate a.i.: I.1 250 g/ha, B.193 15 g/ha, alone or as mixture (composition 1.193)): 95
- herbicidal activity against GERDI found ([2]; applied alone at 31.25 g/ha a.i.): 65
- herbicidal activity against GERDI found [2, 11]: 50
- herbicidal activity against GERDI found [2, 12]: 65
- herbicidal activity against GERDI found ([2]; g/ha a.i.: I.1 125, B.52 2.5, mixture 125+2.5): 65
